Assay results published in patent publication US4193997A, “Thieno[2,3-c] and [3,2-c]pyridines, process for their preparation and therapeutic applications thereof” (Parcor, priority 1977, dated 1980).

Key:
[1] = test system: collagen-induced blood-platelet aggregation; assay: Collagen-induced blood-platelet aggregation after oral treatment of rats; assay type: in vivo, Wistar rats; conditions: Rattus norvegicus, 100 mg/kg oral, 3 hrs after treatment, collagen (bovine tendon extract), read-out: Percent inhibition of blood-platelet aggregation, Collagen
Method: (§1) Blood is taken from the jugular vein of Wistar rats. From this citrated blood, and after centrifugation, a plasma containing 600,000±20,000 blood-platelets per mm 3 is reconstituted, which plasma is used in all aggregation determinations.
(§2) 0.4 ml plasma is placed in a siliconized tube provided with a magnet bar which is also siliconized. The tube is introduced into an aggregometer connected to an apparatus which records the optical density variations. When light transmission reaches a stable value, 0.5 ml of a solution containing 10 μM A.D.P. (adenosine diphosphate) is introduced into the tube.
The A.D.P. solution is substituted with a collagen solution (bovine tendon extract).
(§3) Different groups of 20 rats each are used. Each group is orally administered a test derivative, at a dosage of 100 mg/kg. The results obtained during both tests are reported in following Table I which indicates the percent inhibition of blood-platelet aggregation obtained with respect to the reference group, 3 hrs after treatment.

[2] = test system: A.D.P.-induced blood-platelet aggregation; assay: A.D.P.-induced blood-platelet aggregation after oral treatment of rats; assay type: in vivo, Wistar rats; conditions: Rattus norvegicus, 100 mg/kg oral, 3 hrs after treatment, 10 μM A.D.P. solution, read-out: Percent inhibition of blood-platelet aggregation, A.D.P.
Method: as §1, §2
Blood-platelet aggregation then induces an increase of light transmission, followed by a decrease subsequent to the disaggregation stage.
The maximal optical density variation thus determined characterizes the extent of the aggregation.
as §3

[3] = test system: Red blood cells; assay: Anti-sludge in vitro, "curative" procedure (protamine sulfate agglomeration of red blood cells); assay type: cell-based, rats; conditions: 25 μg; for percent aggregates, size of agglomerates 4: reference tests 11; for percent aggregates, size of agglomerates 3: reference tests 15 or 16; for percent aggregates, size of agglomerates 2: reference tests 19; for percent aggregates, size of agglomerates 1: reference tests 33 (n°3, 4, 6) or 30 (n°11, 12, 17)
Method: (§4) Red blood cells of rats are washed three times and diluted to 1/250 concentration in physiological saline. In each of 5 tubes are placed 0.6 ml of this suspension and 0.2 ml physiological saline. Into each tube is then added, respectively, an amount of 0, 25, 50, 100 and 200 μg of the test derivative contained in 0.2 ml of solution. After incubation for one hour at 37° C., 0.2 ml of a solution containing 125 μg/ml protamine sulfate is added thereto, and the resulting material is further incubated for 0.5 hour at 37° C. The red blood cells of each tube are then examined with a Mallasez cell, and the percent free red blood cells (RBC) and the percent agglomerates formed by 2, 3, 4, 5 . . . RBC are noted.
The test was repeated according to a "curative" procedure. The red blood cells were first contacted with the protamine sulfate and, after incubation for 0.5 hour, 0.2 ml containing 25 μg of the test derivative were added thereto, after which the material was further incubated for one hour at 37° C.

[4] = test system: Red blood cells; assay: Anti-sludge in vitro, "preventive" treatment (protamine sulfate agglomeration of red blood cells); assay type: cell-based, rats; conditions: for percent agglomerates formed by 5 RBC: controls 6 or 8; for percent agglomerates formed by 4 RBC: controls 9 or 8; for percent agglomerates formed by 3 RBC: controls 13 or 14; for percent agglomerates formed by 2 RBC: controls 17 or 16; for percent free red blood cells (size 1): controls 32 (n°3, 4, 6) or 30 (n°11, 12, 17)
Method: as §4

O=C1c2ccsc2CCN1Cc1ccccc1Cl [Derivative n°1, 4-Oxo-5-o.chlorobenzyl-4,5,6,7-tetrahydro-thieno[3,2-c]pyridine]
inhibition at 100 mg/kg [1]: 90%
inhibition at 100 mg/kg [2]: 60.4%

O=C1c2ccsc2CCN1Cc1ccc(Cl)cc1 [Derivative n°3, 4-Oxo-5-p.chlorobenzyl-4,5,6,7-tetrahydro-thieno[3,2-c]pyridine]
inhibition at 100 mg/kg [1]: 91.4%
percent aggregates, size of agglomerates 4 [3]: 1%
percent aggregates, size of agglomerates 3 [3]: 5%
percent aggregates, size of agglomerates 2 [3]: 13%
percent aggregates, size of agglomerates 1 [3]: 81%
percent agglomerates formed by 5 RBC ([4]; 25 μg per tube): 1%
percent agglomerates formed by 4 RBC ([4]; 25 μg per tube): 2%
percent agglomerates formed by 3 RBC ([4]; 25 μg per tube): 10%
percent agglomerates formed by 2 RBC ([4]; 25 μg per tube): 24%
percent free red blood cells (size 1) ([4]; 25 μg per tube): 63%
percent agglomerates formed by 4 RBC ([4]; 50 μg per tube): 2%
percent agglomerates formed by 3 RBC ([4]; 50 μg per tube): 7%
percent agglomerates formed by 2 RBC ([4]; 50 μg per tube): 25%
percent free red blood cells (size 1) ([4]; 50 μg per tube): 66%
percent agglomerates formed by 5 RBC ([4]; 100 μg per tube): 1%
percent agglomerates formed by 4 RBC ([4]; 100 μg per tube): 1%
percent agglomerates formed by 3 RBC ([4]; 100 μg per tube): 6%
percent agglomerates formed by 2 RBC ([4]; 100 μg per tube): 15%
percent free red blood cells (size 1) ([4]; 100 μg per tube): 77%
percent agglomerates formed by 4 RBC ([4]; 200 μg per tube): 1%
percent agglomerates formed by 3 RBC ([4]; 200 μg per tube): 1%
percent agglomerates formed by 2 RBC ([4]; 200 μg per tube): 10%
percent free red blood cells (size 1) ([4]; 200 μg per tube): 88%
inhibition at 100 mg/kg [2]: 60.8%

O=C1c2sccc2CCN1Cc1ccccc1Cl [Derivative n°4, 6-o.Chlorobenzyl-7-oxo-4,5,6,7-tetrahydro-thieno[2,3-c]-pyridine]
inhibition at 100 mg/kg [1]: 93.1%
percent aggregates, size of agglomerates 5 ([3]; reference tests 8 or 9): 1%
percent aggregates, size of agglomerates 4 [3]: 1%
percent aggregates, size of agglomerates 3 [3]: 3%
percent aggregates, size of agglomerates 2 [3]: 17%
percent aggregates, size of agglomerates 1 [3]: 78%
percent agglomerates formed by 5 RBC ([4]; 25 μg per tube): 2%
percent agglomerates formed by 4 RBC ([4]; 25 μg per tube): 3%
percent agglomerates formed by 3 RBC ([4]; 25 μg per tube): 7%
percent agglomerates formed by 2 RBC ([4]; 25 μg per tube): 20%
percent free red blood cells (size 1) ([4]; 25 μg per tube): 68%
percent agglomerates formed by 5 RBC ([4]; 50 μg per tube): 1%
percent agglomerates formed by 4 RBC ([4]; 50 μg per tube): 2%
percent agglomerates formed by 3 RBC ([4]; 50 μg per tube): 4%
percent agglomerates formed by 2 RBC ([4]; 50 μg per tube): 22%
percent free red blood cells (size 1) ([4]; 50 μg per tube): 71%
percent agglomerates formed by 4 RBC ([4]; 100 μg per tube): 2%
percent agglomerates formed by 3 RBC ([4]; 100 μg per tube): 1%
percent agglomerates formed by 2 RBC ([4]; 100 μg per tube): 17%
percent free red blood cells (size 1) ([4]; 100 μg per tube): 80%
percent agglomerates formed by 3 RBC ([4]; 200 μg per tube): 1%
percent agglomerates formed by 2 RBC ([4]; 200 μg per tube): 8%
percent free red blood cells (size 1) ([4]; 200 μg per tube): 91%
inhibition at 100 mg/kg [2]: 62.9%

O=C(c1ccccc1Cl)N1CCc2sccc2C1=O [Derivative n°6, 4-Oxo-5-o.chlorobenzoyl-4,5,6,7-tetrahydro-thieno[3,2-c]pyridine]
inhibition at 100 mg/kg [1]: 91.5%
percent aggregates, size of agglomerates 4 [3]: 2%
percent aggregates, size of agglomerates 3 [3]: 2%
percent aggregates, size of agglomerates 2 [3]: 15%
percent aggregates, size of agglomerates 1 [3]: 81%
percent agglomerates formed by 5 RBC ([4]; 25 μg per tube): 4%
percent agglomerates formed by 4 RBC ([4]; 25 μg per tube): 5%
percent agglomerates formed by 3 RBC ([4]; 25 μg per tube): 4%
percent agglomerates formed by 2 RBC ([4]; 25 μg per tube): 22%
percent free red blood cells (size 1) ([4]; 25 μg per tube): 65%
percent agglomerates formed by 5 RBC ([4]; 50 μg per tube): 1%
percent agglomerates formed by 4 RBC ([4]; 50 μg per tube): 3%
percent agglomerates formed by 3 RBC ([4]; 50 μg per tube): 5%
percent agglomerates formed by 2 RBC ([4]; 50 μg per tube): 25%
percent free red blood cells (size 1) ([4]; 50 μg per tube): 66%
percent agglomerates formed by 5 RBC ([4]; 100 μg per tube): 1%
percent agglomerates formed by 4 RBC ([4]; 100 μg per tube): 0%
percent agglomerates formed by 3 RBC ([4]; 100 μg per tube): 3%
percent agglomerates formed by 2 RBC ([4]; 100 μg per tube): 13%
percent free red blood cells (size 1) ([4]; 100 μg per tube): 83%
percent agglomerates formed by 3 RBC ([4]; 200 μg per tube): 1%
percent agglomerates formed by 2 RBC ([4]; 200 μg per tube): 8%
percent free red blood cells (size 1) ([4]; 200 μg per tube): 91%
inhibition at 100 mg/kg [2]: 61.7%

N#Cc1ccccc1CN1CCc2sccc2C1=O [Derivative n°8, 4-Oxo-5-o.cyanobenzyl-4,5,6,7-tetrahydro-thieno[3,2-c]pyridine]
inhibition at 100 mg/kg [1]: 91%
inhibition at 100 mg/kg [2]: 60.8%

COC(=O)c1ccccc1CN1CCc2sccc2C1=O [Derivative n°9, 4-Oxo-5-o,carbomethoxybenzyl-4,5,6,7-tetrahydro-thieno[3,2-c]-pyridine]
inhibition at 100 mg/kg [1]: 90.8%
inhibition at 100 mg/kg [2]: 61.6%

O=C(c1ccccc1Cl)N1CCc2ccsc2C1=O [Derivative n°10, 6-o.Chlorobenzoyl-7-oxo-4,5,6,7-tetrahydro-thieno[2,3-c]pyridine]
inhibition at 100 mg/kg [1]: 92.2%
inhibition at 100 mg/kg [2]: 60.9%

O=C(OCc1ccccc1)C1Cc2sccc2C(=O)N1Cc1ccccc1 (stereo not shown) [Derivative n°13, 4-Oxo-6-benzyloxycarbonyl-5-benzyl-4,5,6,7-tetrahydro-thieno[3,2-c]pyridine]
inhibition at 100 mg/kg [1]: 91.9%
inhibition at 100 mg/kg [2]: 63.4%

O=C(O)C1Cc2sccc2C(=O)N1Cc1ccccc1 (stereo not shown) [Derivative n°14, 4-Oxo-6-carboxy-5-benzyl-4,5,6,7-tetrahydro-thieno[3,2-c]-pyridine]
inhibition at 100 mg/kg [1]: 93%
inhibition at 100 mg/kg [2]: 60.5%

COc1cc(CN2C(=O)c3ccsc3CC2C(=O)O)cc(OC)c1OC (stereo not shown) [Derivative n°16, 4-Oxo-6-carboxy-5-(3,4,5-trimethoxy-benzyl)-4,5,6,7-tetrahydro-thieno[3,2-c]pyridine]
inhibition at 100 mg/kg [1]: 90.5%
inhibition at 100 mg/kg [2]: 62.4%

O=C1NCC(c2ccccc2)c2ccsc21 (stereo not shown) [Derivative n°18, 4-Phenyl-7-oxo-4,5,6,7-tetrahydro-thieno[2,3-c]pyridine]
inhibition at 100 mg/kg [1]: 91.4%
inhibition at 100 mg/kg [2]: 60.6%
